Laboratory results taken from US9890171B2, “Aldosterone synthase inhibitors” (Boehringer Ingelheim International GmbH, priority 2014, dated 2018).

Biological target: aldosterone synthase (CYP11B2) (Macaca fascicularis, UniProt A0A2K5UPL9)
Assay: aldosterone synthase inhibition assay
Format: biochemical, cynomolgus monkey
Settings: cynomolgus adrenal gland mitochondria, 2 μM corticosterone, aldosterone quantified by mass spectrometry
Procedure: The aldosterone synthase inhibition assay employs cynomolgus adrenal gland mitochondria as the source of aldosterone synthase (CYP11B2). Mitochondria are prepared from frozen cynomolgus monkey adrenal glands according to Method A described in by J. D. McGarry et al. (Biochem. J., 1983, 214, 21-28), with a final resuspension in the AT buffer described in R. Yamaguchi et al. (Cell Death and Differentiation, 2007, 14, 616-624), frozen as aliquots in liquid nitrogen and stored at −80° C. until use.
Assays are performed in 96-well format in a final volume of 60 μL/well, containing 100 mM potassium phosphate, pH 7.4, 1% (v/v) DMSO, and additionally, 2 μM of corticosterone and […] of mitochondrial protein. Reactions are started by the addition of NADPH to 1 mM and allowed to proceed for 60-90 minutes at 37° C. Reactions are terminated by the addition of […]. One hundred microliters are then transferred to a glass filter plate and centrifuged at 570×g for 5 minutes and the filtrate is collected. Reaction product aldosterone is quantified by mass spectrometry. To determine the assay blank value (0% activity), NADPH is omitted from some reactions.
Dose dependent inhibition is quantified by the inclusion of compound at various concentrations. Maximum activity (100%) is defined by reactions containing NADPH, but without compound. Activities at each concentration are expressed as a percentage of the maximum activity (y-axis) and plotted against concentration of compound (x-axis) and the concentration corresponding to 50% activity (IC50) determined using the XLFit curve-fitting program using a 4-parameter logistic model.

Sequence of aldosterone synthase (CYP11B2) (A0A2K5UPL9 1-503): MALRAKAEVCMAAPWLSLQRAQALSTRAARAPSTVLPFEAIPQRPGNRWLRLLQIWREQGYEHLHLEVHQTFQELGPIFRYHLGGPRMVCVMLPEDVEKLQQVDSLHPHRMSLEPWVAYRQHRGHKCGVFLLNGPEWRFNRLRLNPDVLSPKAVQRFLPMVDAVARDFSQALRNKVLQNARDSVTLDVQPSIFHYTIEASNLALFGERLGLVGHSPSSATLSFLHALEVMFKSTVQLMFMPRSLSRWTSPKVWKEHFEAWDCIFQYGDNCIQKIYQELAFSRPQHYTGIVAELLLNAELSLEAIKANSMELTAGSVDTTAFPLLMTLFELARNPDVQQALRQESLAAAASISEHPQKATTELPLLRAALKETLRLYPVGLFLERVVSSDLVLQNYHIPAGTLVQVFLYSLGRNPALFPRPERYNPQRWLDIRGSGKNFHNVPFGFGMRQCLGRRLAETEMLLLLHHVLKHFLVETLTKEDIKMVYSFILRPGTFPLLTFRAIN

Row | Compound | IC50 [µM]
1 | OC1COCc2c(-c3ccn4ccnc4c3)cncc21 (single isomer, unassigned) [Compound 101, 8-Imidazo[1,2-a]pyridin-7-yl-3,4-dihydro-1H-pyrano[4,3-c]pyridin-4-ol] | 0.225
2 | OC1COCc2c(-c3ccccc3)cncc21 (single isomer, unassigned) [Compound 5, 8-Phenyl-3,4-dihydro-1H-pyrano[4,3-c]pyridin-4-ol] | 0.055
3 | CCS(=O)(=O)NC1COCc2c(-c3ccc4oc(=O)ccc4c3)cncc21 (single isomer, unassigned) [Compound 158, Ethanesulfonic acid [8-(2-oxo-2H-chromen-6-yl)-3,4-dihydro-1H-pyrano[4,3-c]pyridin-4-yl]-amide] | 0.013
4 | OC1COCc2cncc(-c3ccc4cnccc4c3)c21 (single isomer, unassigned) [Compound 167, 5-Isoquinolin-6-yl-3,4-dihydro-1H-pyrano[3,4-c]pyridin-4-ol] | 0.156
5 | Cc1noc2ccc(-c3cncc4c3COC3(CC3)C4O)cc12 (single isomer, unassigned) [Compound 114, 8-(3-methyl-1,2-benzoxazol-5-yl)spiro[1,4-dihydropyrano[4,3-c]pyridine-3,1′-cyclopropane]-4-ol] | 0.0188
6 | Cn1nc(C#N)c2ccc(-c3cncc4c3COCC4(C)O)cc21 (single isomer, unassigned) [Compound 178, 6-(4-Hydroxy-4-methyl-3,4-dihydro-1H-pyrano[4,3-c]pyridin-8-yl)-1-methyl-1H-indazole-3-carbonitrile] | 0.015
7 | Cn1ncc2c(F)cc(-c3cncc4c3COCC4O)cc21 (single isomer, unassigned) [Compound 96, 8-(4-Fluoro-1-methyl-1H-indazol-6-yl)-3,4-dihydro-1H-pyrano[4,3-c]pyridin-4-ol] | 0.0081
8 | Cn1cc2ccc(-c3cncc4c3COCC4O)cc2n1 (single isomer, unassigned) [Compound 50, 8-(2-Methyl-2H-indazol-6-yl)-3,4-dihydro-1H-pyrano[4,3-c]pyridin-4-ol] | 1.2
9 | CCS(=O)(=O)NC1COCc2c(-c3cc4c(cnn4C)cc3C)cncc21 (single isomer, unassigned) [Compound 79, Ethanesulfonic acid [8-(1,5-dimethyl-1H-indazol-6-yl)-3,4-dihydro-1H-pyrano[4,3-c]pyridin-4-yl]-amide] | 0.653
10 | Cn1ncc2ccc(-c3cncc4c3COCC4O)cc21 (single isomer, unassigned) [Compound 44, 8-(1-Methyl-1H-indazol-6-yl)-3,4-dihydro-1H-pyrano[4,3-c]pyridin-4-ol] | 0.0085

Second part, the molecule after the results:

Row | IC50 [µM] | Compound
11 | 0.496 | CC1(C)COc2ccc(-c3cncc4c3COCC4O)cc21 (single isomer, unassigned) [Compound 182, 8-(3,3-Dimethyl-2,3-dihydro-benzofuran-5-yl)-3,4-dihydro-1H-pyrano[4,3-c]pyridin-4-ol]
12 | 0.0173 | OC1COCc2c(-c3ccc4cc[nH]c4c3)cncc21 (single isomer, unassigned) [Compound 34, 8-(1H-Indol-6-yl)-3,4-dihydro-1H-pyrano[4,3-c]pyridin-4-ol]
13 | 0.0101 | Cc1noc2ccc(-c3cncc4c3COCC4O)cc12 (single isomer, unassigned) [Compound 94, 8-(3-Methyl-benzo[d]isoxazol-5-yl)-3,4-dihydro-1H-pyrano[4,3-c]pyridin-4-ol]
14 | 0.021 | Cc1n[nH]c2ccc(-c3cncc4c3COCC4O)cc12 (single isomer, unassigned) [Compound 12, 8-(3-Methyl-1H-indazol-5-yl)-3,4-dihydro-1H-pyrano[4,3-c]pyridin-4-ol]
15 | 0.96 | O=C1NCCc2ccc(-c3cncc4c3COCC4O)cc21 (single isomer, unassigned) [Compound 119, 7-(4-Hydroxy-3,4-dihydro-1H-pyrano[4,3-c]pyridin-8-yl)-3,4-dihydro-2H-isoquinolin-1-one]
16 | 0.054 | OC1COCc2c(-c3ccc4cnccc4c3)cncc21 (single isomer, unassigned) [Compound 30, 8-Isoquinolin-6-yl-3,4-dihydro-1H-pyrano[4,3-c]pyridin-4-ol]
